The results in this text go back to patent US7741064B2, “Materials and methods relating to G-protein coupled receptor oligomers” (The University Court of the University of Glasgow, priority 2003, dated 2010).

In test [1] the target is histamine H1 receptor-G11α fusion co-expressed with isolated Leu151Asp α1b-adrenoceptor (UniProt P21278+P35367). Conditions: in comparison to membranes expressing the same level of only the histamine H1 receptor-G11α fusion; 1 mM histamine (FIG. 12A).
The target of test [2] is T1, Leu151Aspα1b-adrenoceptor-G11α co-expressed with histamine H1 receptor-Gly208Ala G11α (UniProt P18841+P35367, L151D).
T1 construct: the full length c-myc-tagged α1b-adrenoceptor-G11α fusion protein; expressed in transfected cells; host or cells: EF88 mouse embryo fibroblasts (Gqα/G11α double knock-out)
T1 sequence (P21278 whole entry G208A, the tested form may be a part): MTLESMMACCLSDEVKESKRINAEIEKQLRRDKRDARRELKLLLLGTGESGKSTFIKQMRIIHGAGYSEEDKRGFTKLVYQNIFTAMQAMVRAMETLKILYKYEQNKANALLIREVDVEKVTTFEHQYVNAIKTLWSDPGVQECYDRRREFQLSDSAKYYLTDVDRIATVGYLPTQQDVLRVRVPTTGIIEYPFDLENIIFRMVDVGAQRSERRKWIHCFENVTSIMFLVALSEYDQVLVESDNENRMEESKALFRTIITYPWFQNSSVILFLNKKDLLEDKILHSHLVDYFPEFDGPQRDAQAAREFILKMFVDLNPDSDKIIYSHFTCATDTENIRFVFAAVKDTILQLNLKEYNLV
T1 sequence (P18841 whole entry L151D, the tested form may be a part): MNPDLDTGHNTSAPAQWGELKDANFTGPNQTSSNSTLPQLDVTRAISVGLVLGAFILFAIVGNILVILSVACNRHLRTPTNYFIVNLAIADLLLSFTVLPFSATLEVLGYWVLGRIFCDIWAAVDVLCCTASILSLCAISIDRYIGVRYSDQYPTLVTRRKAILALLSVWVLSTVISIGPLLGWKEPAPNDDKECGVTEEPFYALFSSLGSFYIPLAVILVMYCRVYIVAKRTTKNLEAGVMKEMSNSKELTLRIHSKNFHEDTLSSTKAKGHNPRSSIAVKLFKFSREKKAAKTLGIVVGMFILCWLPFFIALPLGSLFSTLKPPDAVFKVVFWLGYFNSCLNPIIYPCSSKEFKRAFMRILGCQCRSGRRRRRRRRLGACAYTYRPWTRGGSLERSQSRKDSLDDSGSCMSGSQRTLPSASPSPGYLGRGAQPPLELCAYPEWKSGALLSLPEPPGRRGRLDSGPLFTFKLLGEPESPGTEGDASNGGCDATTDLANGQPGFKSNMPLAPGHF
T1 sequence (P21278 whole entry, stated change not applied, the tested form may be a part): as the sequence (P21278 whole entry G208A, the tested form may be a part) above, with A208G counted along it
T1 sequence (P35367 whole entry, the tested form may be a part): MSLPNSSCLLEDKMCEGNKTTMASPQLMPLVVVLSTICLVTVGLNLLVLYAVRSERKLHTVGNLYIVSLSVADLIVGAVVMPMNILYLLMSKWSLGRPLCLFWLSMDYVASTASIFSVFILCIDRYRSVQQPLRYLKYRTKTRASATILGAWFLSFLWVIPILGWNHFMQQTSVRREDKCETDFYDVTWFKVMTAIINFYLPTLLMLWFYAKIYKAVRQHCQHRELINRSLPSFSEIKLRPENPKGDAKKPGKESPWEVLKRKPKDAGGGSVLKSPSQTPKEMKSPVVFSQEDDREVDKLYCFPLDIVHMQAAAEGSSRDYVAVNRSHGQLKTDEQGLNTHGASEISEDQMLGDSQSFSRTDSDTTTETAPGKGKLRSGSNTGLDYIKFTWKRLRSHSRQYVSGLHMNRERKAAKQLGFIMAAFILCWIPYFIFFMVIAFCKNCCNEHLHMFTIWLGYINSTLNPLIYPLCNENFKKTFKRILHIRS
The format is cell-based. The settings on record: EF88 cells; phenylephrine 10 μM, histamine 1 mM (FIG. 7B).

The target of test [3] is T2, Leu133Asp histamine H1 receptor-G11α co-expressed with α1b-adrenoceptor-Gly208Ala G11α (UniProt P18841+P35367, L133D).
T2 construct: the full length c-myc-tagged α1b-adrenoceptor-G11α fusion protein; expressed in transfected cells; host or cells: EF88 mouse embryo fibroblasts (Gqα/G11α double knock-out)
T2 sequence (P35367 whole entry L133D, one chain of several, the tested form may be a part): as the sequence (P35367 whole entry, the tested form may be a part) above, with L133D counted along it
T2 sequence (P21278 whole entry partner, one chain of several, the tested form may be a part): as the sequence (P21278 whole entry G208A, the tested form may be a part) above, with A208G counted along it
T2 sequence (P21278 whole entry G208A partner, one chain of several, the tested form may be a part): as the sequence (P21278 whole entry G208A, the tested form may be a part) above
Briefly: [Ca2+]i imaging in EF88 cells. Conditions: phenylephrine 10 μM, histamine 1 mM (FIG. 7A). Format: cell-based. On the procedure: EF88 cells were grown in DMEM supplemented with 10% (v/v) heat inactivated foetal bovine serum and L-glutamine (1 mM) in a 95% air and 5% CO2 atmosphere at 37° C. A portion of the cells harvested during trypsinization were plated on to glass coverslips and after a 24 h growth period they were transfected using LipofectAMINE (Life Technologies Inc.) according to the manufacturers' instructions. After 3 h cells were washed twice with OPTIMEM 1 and then cultured in DMEM growth medium for a further 24 h. A total of 3 μg of pCDNA3 containing the relevant cDNA species were used to transfect each coverslip. Transfected EF88 cells were loaded with the Ca^2+-sensitive dye Fura-2 by incubation (15-20 min, 37° C.) under reduced light in DMEM growth medium containing the dye's membrane-permanent acetoxymethylester form (1.5 μM).

The target of test [4] is wild type histamine H1 receptor-G11α fusion protein (Homo sapiens, UniProt P35367). Conditions: HEK293 membranes; 1 mM histamine (FIG. 5(1)). The procedure:
(§1) [^35S]GTPγS binding experiments were initiated by the addition of membranes containing defined amounts of the fusion constructs (see Results for details) to an assay buffer (20 mM HEPES (pH 7.4), 3 mM MgCl2, 100 mM NaCl, 1 μM guanosine 5′-diphosphate, 0.2 mM ascorbic acid, 50 nCi [^35S]GTPγS) containing the indicated concentrations of receptor ligands. Non-specific binding was determined in the same conditions but in the presence of 100 μM GTPγS. Reactions were incubated for 15 min at 30° C. and were terminated by the addition of 0.5 ml of ice cold buffer, containing 20 mM HEPES (pH 7.4), 3 mM MgCl2 and 100 mM NaCl.
(§2) Finally, the immunocomplexes were washed twice with solubilization buffer, and bound [^35S]GTPγS measured by liquid-scintillation spectrometry.

For test [5], the target named is histamine H1 receptor-Gly208Ala G11α fusion protein (UniProt P21278+P35367, G208A). The settings on record: HEK293 membranes; 1 mM histamine (FIG. 5(2)). On the procedure: as §1, §2
histamine H1 receptor-Gly208Ala G11α fusion protein, sequence (P35367+P21278 fused P21278:G208A): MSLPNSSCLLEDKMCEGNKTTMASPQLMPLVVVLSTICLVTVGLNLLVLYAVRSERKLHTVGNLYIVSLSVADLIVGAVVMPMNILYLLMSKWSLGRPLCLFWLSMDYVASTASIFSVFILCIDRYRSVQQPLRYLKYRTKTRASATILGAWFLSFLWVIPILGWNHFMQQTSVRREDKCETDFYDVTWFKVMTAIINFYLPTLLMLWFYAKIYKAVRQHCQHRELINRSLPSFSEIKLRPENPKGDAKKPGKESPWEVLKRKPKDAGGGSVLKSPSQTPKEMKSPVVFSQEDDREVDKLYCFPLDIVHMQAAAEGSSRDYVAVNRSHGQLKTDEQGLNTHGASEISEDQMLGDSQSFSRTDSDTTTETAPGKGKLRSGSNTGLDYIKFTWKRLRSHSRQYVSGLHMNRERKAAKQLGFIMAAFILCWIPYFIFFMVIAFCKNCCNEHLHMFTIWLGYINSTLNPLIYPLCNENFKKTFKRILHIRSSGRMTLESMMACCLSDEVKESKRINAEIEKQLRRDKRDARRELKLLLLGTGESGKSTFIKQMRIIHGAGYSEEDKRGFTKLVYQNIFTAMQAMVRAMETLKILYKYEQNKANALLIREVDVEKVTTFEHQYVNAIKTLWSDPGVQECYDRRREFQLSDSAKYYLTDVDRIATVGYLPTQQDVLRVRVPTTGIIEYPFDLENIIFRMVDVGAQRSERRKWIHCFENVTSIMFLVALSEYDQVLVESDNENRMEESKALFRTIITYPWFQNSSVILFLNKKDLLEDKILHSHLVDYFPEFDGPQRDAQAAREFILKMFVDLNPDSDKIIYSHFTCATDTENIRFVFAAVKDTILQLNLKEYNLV
For test [6], the target named is Leu133Asp histamine H1 receptor-G11α fusion protein (Homo sapiens, UniProt P35367, L133D). The settings on record: HEK293 membranes; 1 mM histamine (FIG. 5(3)). On the procedure:
as §1, §2

Test [7] concerns the target co-expressed histamine H1 receptor-Gly208AlaG11α + Leu133Asp histamine H1 receptor-G11α (Homo sapiens, UniProt P35367, L133D). Conditions: HEK293 membranes; two mutants co-expressed; 1 mM histamine (FIG. 5(4)). The procedure:
as §1, §2

Test [8] addresses histamine H1 receptor-G11α co-transfected with Leu151Asp α1b-adrenoceptor (UniProt P21278+P35367). The settings on record: EF88 cells; 1 mM histamine; versus histamine H1 receptor-G11α alone (FIG. 12B).
In test [9] the target is T3, wild type α1b-adrenoceptor-G11α fusion protein (Mesocricetus auratus, UniProt P18841).
T3 construct: the full length c-myc-tagged α1b-adrenoceptor-G11α fusion protein; expressed in transfected cells; host or cells: HEK293 (membranes)
T3 sequence (P18841 1-515): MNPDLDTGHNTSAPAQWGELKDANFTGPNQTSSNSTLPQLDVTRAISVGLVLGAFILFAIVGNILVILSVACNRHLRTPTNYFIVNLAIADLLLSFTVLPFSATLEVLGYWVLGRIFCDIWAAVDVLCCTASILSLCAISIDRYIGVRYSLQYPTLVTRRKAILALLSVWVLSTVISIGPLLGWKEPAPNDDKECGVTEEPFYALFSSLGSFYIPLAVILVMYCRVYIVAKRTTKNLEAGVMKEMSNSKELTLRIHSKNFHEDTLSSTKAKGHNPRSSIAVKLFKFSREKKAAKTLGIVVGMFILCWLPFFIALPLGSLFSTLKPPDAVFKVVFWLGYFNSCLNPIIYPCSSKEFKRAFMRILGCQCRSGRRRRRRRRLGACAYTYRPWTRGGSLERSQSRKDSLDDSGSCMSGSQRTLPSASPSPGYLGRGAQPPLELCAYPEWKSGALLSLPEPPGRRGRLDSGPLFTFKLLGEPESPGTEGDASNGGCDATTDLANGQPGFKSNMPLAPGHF
The experiment in a line: [35S]GTPγS binding, membranes of HEK293 cells. The format is biochemical. Conditions: 10 μM phenylephrine (FIG. 4A). In general terms: GTPγS is a poorly hydrolysed GTP analogue; its binding reports G protein activation.
Protocol: (§3) [^35S]GTPγS binding experiments were initiated by the addition of membranes containing defined amounts of the fusion constructs (see Results for details) to an assay buffer (20 mM HEPES (pH 7.4), 3 mM MgCl2, 100 mM NaCl, 1 μM guanosine 5′-diphosphate, 0.2 mM ascorbic acid, 50 nCi [^35S]GTPγS) containing the indicated concentrations of receptor ligands. Non-specific binding was determined in the same conditions but in the presence of 100 μM GTPγS. Reactions were incubated for 15 min at 30° C. and were terminated by the addition of 0.5 ml of ice cold buffer, containing 20 mM HEPES (pH 7.4), 3 mM MgCl2 and 100 mM NaCl. The samples were centrifuged at 16,000 g for 15 min at 4° C., and the resulting pellets were resuspended in solubilization buffer (100 mM Tris, 200 mM NaCl, 1 mM EDTA, 1.25% Nonidet P-40) plus 0.2% sodium dodecylsulfate. Samples were precleared with Pansorbin (Calbiochem), followed by immunoprecipitation with CQ antiserum (Mitchell et al., 1993).

The subject of the next test is c-myc-Nt-TM1α1b-G11α. The experiment in a line: [35S]GTPγS binding recovered in anti-c-myc immunoprecipitates, HEK293 cells. The settings on record: 10 μM phenylephrine (FIG. 13B). Format: biochemical.
The target of test [10] is T4, α1b-adrenoceptor-Gly208AlaG11α fusion protein (UniProt P18841+P21278, G208A).
T4 construct: the full length c-myc-tagged α1b-adrenoceptor-G11α fusion protein; expressed in transfected cells; host or cells: HEK293 (membranes)
Briefly: [35S]GTPγS binding, membranes of HEK293 cells. The format is biochemical. Conditions: 10 μM phenylephrine (FIG. 4A(2)).
Protocol: as §3

The target in test [11] is T5, Leu151Aspα1b-adrenoceptor-G11α fusion protein (Mesocricetus auratus, UniProt P18841, L151D).
T5 construct: the full length c-myc-tagged α1b-adrenoceptor-G11α fusion protein; expressed in transfected cells; host or cells: HEK293 (membranes)
T5 sequence (P18841 1-515 L151D): T3 sequence (P18841 1-515) with L151D
The experiment in a line: [35S]GTPγS binding, membranes of HEK293 cells. The format is biochemical. Conditions: 10 μM phenylephrine (FIG. 4A(3)).
Protocol: as §3

Test [12] has as its target T6, co-expressed α1b-adrenoceptor-Gly208AlaG11α + Leu151Aspα1b-adrenoceptor-G11α (Mesocricetus auratus, UniProt P18841, L151D).
T6 construct: the full length c-myc-tagged α1b-adrenoceptor-G11α fusion protein; expressed in transfected cells; host or cells: HEK293 (membranes)
Briefly: [35S]GTPγS binding, membranes of HEK293 cells. The format is biochemical. Conditions: two non-functional mutants co-expressed, 10 μM phenylephrine (FIG. 4A(4)).
Protocol: as §3

Residue numbers refer to the chain shown, from its start. “Also recorded” adds a separate entry of the source.

Leu133Asp histamine H1 receptor-G11α fusion protein, sequence (P35367 whole entry L133D, the tested form may be a part): as the sequence (P35367 whole entry, the tested form may be a part) above, with L133D counted along it
wild type histamine H1 receptor-G11α fusion protein, sequence (P35367 whole entry, the tested form may be a part): as the sequence (P35367 whole entry, the tested form may be a part) above
Protocol for c-myc-Nt-TM1α1b-G11α: as §3

Consider `NCCc1c[nH]cn1` [histamine], for which the “histamine stimulation of [35S]GTPγS binding” value in test [1] is given as “significantly reduced”. The entries for the “elevation of intracellular [Ca2+]” value in test [2] and in [3] were “caused elevation of intracellular [Ca^2+]; also recorded: elevation of intracellular calcium” and “little or no change”, respectively. For the same compound, the “stimulation of [35S]GTPγS binding” value is “large stimulation” in test [4], “absent” in [5] and “absent” in [6]. For the same compound, the “agonist activation of the G protein ([35S]GTPγS binding)” value in test [7] is recorded as “reconstituted agonist activation”. The “histamine stimulation of intracellular [Ca2+]” value in test [8] is “reduced markedly”.
For the compound `CNC[C@H](O)c1cccc(O)c1` [phenylephrine], the “stimulation of the binding of [35S]GTPγS” value in test [9] is on record as “large stimulation”. The “stimulation of [35S]GTPγS binding in anti-c-myc immunoprecipitates” value in the test with c-myc-Nt-TM1α1b-G11α (co-expressed with the isolated α1b-adrenoceptor) is “did not result in significant stimulation”. Also, the “[35S]GTPγS binding in response to agonist” value in the test with c-myc-Nt-TM1α1b-G11α (construct expressed alone) is listed as “did not bind”. In addition, the entries for the “elevation of intracellular [Ca2+]” value in [2] and in test [3] were “did not; also recorded: little or no change” and “able to elevate intracellular [Ca^2+]; also recorded: elevation of intracellular calcium concentration”, respectively. Also, the “stimulation of [35S]GTPγS binding” value is listed as “essentially eliminated” in test [10] and “unable to stimulate binding” in test [11]. In test [12], the “agonist-mediated binding of [35S]GTPγS” value was “reconstituted phenylephrine-mediated binding”.
